Laboratory results from BigSolDB 2.1.

O=P(O)(O)c1ccccc1-c1ccccc1O
Settings | solubility (mole fraction)
in chlorobenzene, 300.97 K | 0.013
in chlorobenzene, 304.47 K | 0.0149
in chlorobenzene, 308.86 K | 0.0156
in chlorobenzene, 313.71 K | 0.0195
in chlorobenzene, 319.15 K | 0.0274
in chlorobenzene, 325.56 K | 0.036
in chlorobenzene, 332.4 K | 0.047
in chlorobenzene, 338.93 K | 0.0597
in chlorobenzene, 342.74 K | 0.07
in chlorobenzene, 346.96 K | 0.0853
in chlorobenzene, 349.4 K | 0.0974
in chlorobenzene, 352.87 K | 0.116
in chlorobenzene, 355.3 K | 0.131
in water, 308.6 K | 0.000258
in water, 314.7 K | 0.000336
in water, 320.97 K | 0.000396
in water, 332.2 K | 0.000496
in water, 337.7 K | 0.000579
in water, 342.4 K | 0.000688
in water, 347.77 K | 0.000763
in water, 352.6 K | 0.000859
in water, 358.3 K | 0.000984
in water, 362.37 K | 0.00115
